This is an account of results in EP4682145A1, “BENZOHETEROCYCLIC COMPOUND, AND PREPARATION METHOD THEREFOR AND USE THEREOF” (Cascade Pharmaceuticals, Inc., priority 2023, dated 2024).

The experiment has as its target T1, human FFAR1 (GPR40) (Homo sapiens, UniProt O14842).
T1 construct: Flag; expressed in transfected cells; host or cells: HEK293T
The experiment in a line: NFAT-RE-based reporter gene activity assay (Dual-Glo luciferase) for GPR40 agonistic activity in co-transfected HEK293T cells. The experiment is classed as cell-based. As to conditions: 4-hour treatment; for Efficacy (%): class symbols. The text has this: The pcDNA3.0-flag-FFAR1 (GPR40) plasmid was constructed using conventional molecular cloning methods. The main steps were as follows: The full-length cDNA sequence of human FFAR1 (GPR40) (NM_005303.3) was inserted into the HindIII and XbaI restriction sites of the pcDNA3.0 vector via PCR technology, resulting in the pcDNA3.0-flag-FFAR1 (GPR40) plasmid; pGL4.30 [luc2P NFAT-RE] (# E8481) and pRL-TK (#E2241) plasmids were both purchased from Promega; the plasmids were transformed into DH5α E. coli using the CaCl2 method, further cultured and amplified, and then purified using a plasmid extraction kit (TIANGEN, # DP117) to obtain the corresponding plasmid DNA.
HEK293T cells were seeded in a 96-well plate at a density of 1 × 10^4/well one day prior to plasmid transfection. Cell transfection was performed according to the instructions of the transfection reagent FuGENE® HD (Promega, # E2311). The main steps were as follows: Taking one well as an example, plasmids pcDNA3.0-flag-FFAR1 (GPR40), pGL4.30 [luc2P NFAT-RE], and pRL-TK were added at ratios of 50 ng, 50 ng, and 5 ng, respectively, into 10 µL of Opti-MEM™ I medium (Gibco, #11058021) and mixed thoroughly; then, 0.2 µL of FuGENE® HD was added, mixed thoroughly, and allowed to stand at room temperature for 5 minutes; finally, this 10 µL mixture was added to the cell well containing 100 µL of culture medium. 24 hours after co-transfection, the compounds were serially diluted at half-logarithmic intervals with 1 µM as the highest concentration, resulting in 10 concentration gradients, which were added to the cell culture medium for a 4-hour treatment.
After 4 hours of compound treatment, the cells were assayed according to the instructions of the Dual-Glo® Luciferase Assay System (Promega, # E2940). The main steps were as follows: 50 µL of culture medium was aspirated from each well and discarded, followed by the addition of 50 µL of Dual-Glo® Luciferase Reagent, and the mixture was shaken at room temperature for 10 minutes. Then, 80 µL of the lysate reaction solution was transferred to a white opaque optiPlate-96 well plate, and the luminescence signal of Firefly luciferase (Firefly-Luc) was measured using an MD i3x multifunctional microplate reader. Subsequently, 40 µL of Dual-Glo® Stop & Glo® Reagent was added, and the mixture was shaken at room temperature for 10 minutes. Finally, the luminescence signal of Renilla luciferase (Renilla-Luc) was measured using the MD i3x multifunctional microplate reader. The ratio of Firefly-Luc/Renilla-Luc was used as the compound's agonistic activity toward GPR40, and normalization was performed using the ratio of the solvent DMSO group. A dose-response curve was fitted using a four-parameter model with GraphPad Prism 8.0 software to calculate the EC50 value.

T1 sequence (O14842 whole entry): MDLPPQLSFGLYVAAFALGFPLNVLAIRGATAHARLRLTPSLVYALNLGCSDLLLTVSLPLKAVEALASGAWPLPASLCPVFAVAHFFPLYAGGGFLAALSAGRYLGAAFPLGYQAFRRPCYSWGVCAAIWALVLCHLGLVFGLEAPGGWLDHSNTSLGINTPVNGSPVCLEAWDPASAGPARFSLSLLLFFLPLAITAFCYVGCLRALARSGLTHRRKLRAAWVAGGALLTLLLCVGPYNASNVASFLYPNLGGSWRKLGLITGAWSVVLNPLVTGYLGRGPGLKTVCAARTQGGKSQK

In the case of `CCCCC[C@H]1CC[C@H](c2nnc(-c3c(C4CCN(c5cccc(OC)c5)CC4)oc4cc(C(CC(=O)O)C5CC5)ccc34)o2)CC1` (relative stereo) [Compound 138], the EC50 – broadly, the concentration that produces a half-maximal response – lay within 100 to 500 nM and the “Efficacy (%)” value is “†† (150 ≥ Efficacy (%) > 100)”.

In the case of `COc1ccc(F)c(N2CCC(c3cc4ccc(C(CC(=O)O)C5CC5)cc4o3)CC2)c1` (stereo not drawn) [Comparative Example 1, reference compound], the EC50 was above 1000 nM and the “Efficacy (%)” value is “NA (NA indicates no activity)”.

Regarding `CN1CCC(c2oc3cc(C(CC(=O)O)C4CC4)ccc3c2-c2cccc(C(C)(C)C)c2)CC1` (stereo not drawn) [Compound 1], the half-maximal effective concentration (EC50) was above 1000 nM and the “Efficacy (%)” value was “† (100 ≥ Efficacy (%) > 50)”.

As for `CC(C)(C)c1cccc(-c2c(-c3ccccc3)oc3cc(C(CC(=O)O)C4CC4)ccc23)c1` (stereo not drawn) [Compound 2], the EC50 was above 500 nM and the “Efficacy (%)” value is given as “†† (150 ≥ Efficacy (%) > 100)”.

Turning to `Cc1ccc(N2CCC(c3oc4cc(C(CC(=O)O)C5CC5)ccc4c3-c3cccc(C(C)(C)C)c3)CC2)cc1` (stereo not drawn) [Compound 3], the concentration for a half-maximal effect (EC50) is 100 to 500 nM and the “Efficacy (%)” value was “†† (150 ≥ Efficacy (%) > 100)”.

On to `Cc1cccc(N2CCC(c3oc4cc(C(CC(=O)O)C5CC5)ccc4c3-c3cccc(C(C)(C)C)c3)CC2)c1` (stereo not drawn) [Compound 4], for which the concentration for a half-maximal effect (EC50) fell in the range of 100 to 500 nM and the “Efficacy (%)” value is on record as “† (100 ≥ Efficacy (%) > 50)”.

Regarding `Cc1ccccc1N1CCC(c2oc3cc(C(CC(=O)O)C4CC4)ccc3c2-c2cccc(C(C)(C)C)c2)CC1` (stereo not drawn) [Compound 5], the EC50 was in the range of 100 to 500 nM and the “Efficacy (%)” value was “††† (Efficacy (%) > 150)”.

Consider `CCc1cccc(N2CCC(c3oc4cc(C(CC(=O)O)C5CC5)ccc4c3-c3ccc(C(C)(C)C)cc3)CC2)c1` (stereo not drawn) [Compound 6], for which the EC50 was above 500 nM and the “Efficacy (%)” value is recorded as “†† (150 ≥ Efficacy (%) > 100)”.

Regarding `CC(C)(C)c1cccc(-c2c(C3CCN(c4ccc(F)cc4)CC3)oc3cc(C(CC(=O)O)C4CC4)ccc23)c1` (stereo not drawn) [Compound 7], the EC50 is 100 to 500 nM and the “Efficacy (%)” value was “†† (150 ≥ Efficacy (%) > 100)”.

For `CC(C)(C)c1cccc(-c2c(C3CCN(c4cccc(F)c4)CC3)oc3cc(C(CC(=O)O)C4CC4)ccc23)c1` (stereo not drawn) [Compound 8], the EC50 is above 500 nM and the “Efficacy (%)” value was “†† (150 ≥ Efficacy (%) > 100)”.

`CC(C)(C)c1cccc(-c2c(C3CCN(c4ccccc4F)CC3)oc3cc(C(CC(=O)O)C4CC4)ccc23)c1` (stereo not drawn) [Compound 9]: the EC50 lay in the range of 100 to 500 nM and the “Efficacy (%)” value was “†† (150 ≥ Efficacy (%) > 100)”.

With `COc1ccc(N2CCC(c3oc4cc(C(CC(=O)O)C5CC5)ccc4c3-c3cccc(C(C)(C)C)c3)CC2)cc1` (stereo not drawn) [Compound 10], the EC50 lay within 100 to 500 nM and the “Efficacy (%)” value is given as “†† (150 ≥ Efficacy (%) > 100)”.

In the case of `COc1cccc(N2CCC(c3oc4cc(C(CC(=O)O)C5CC5)ccc4c3-c3cccc(C(C)(C)C)c3)CC2)c1` (stereo not drawn) [Compound 11], the EC50 was in the range of 10 to 100 nM and the “Efficacy (%)” value is “††† (Efficacy (%) > 150)”.

Consider `COc1cccc(N2CCC(c3oc4cc(C(CC(=O)O)C5CC5)ccc4c3-c3ccc(C(C)(C)C)cc3)CC2)c1` (stereo not drawn) [Compound 13], for which the EC50 was 100 to 500 nM and the “Efficacy (%)” value is recorded as “††† (Efficacy (%) > 150)”.

As for `CCOc1cccc(N2CCC(c3oc4cc(C(CC(=O)O)C5CC5)ccc4c3-c3ccc(C(C)(C)C)cc3)CC2)c1` (stereo not drawn) [Compound 15], the EC50 was in the range of 100 to 500 nM and the “Efficacy (%)” value was “††† (Efficacy (%) > 150)”.

As to `CC(C)(C)c1cccc(-c2c(C3CCN(c4cccc(C(F)(F)F)c4)CC3)oc3cc(C(CC(=O)O)C4CC4)ccc23)c1` (stereo not drawn) [Compound 20], the concentration giving a half-maximal response (EC50) lay in the range of 100 to 500 nM and the “Efficacy (%)” value is given as “†† (150 ≥ Efficacy (%) > 100)”.

As to `COc1ccccc1N1CCC(c2oc3cc(C(CC(=O)O)C4CC4)ccc3c2-c2cccc(C(C)(C)C)c2)CC1` (stereo not drawn) [Compound 21], the EC50 fell in the range of 100 to 500 nM and the “Efficacy (%)” value is listed as “†† (150 ≥ Efficacy (%) > 100)”.

As to `CC(C)(C)c1cccc(-c2c(C3CCN(c4ccccc4Cl)CC3)oc3cc(C(CC(=O)O)C4CC4)ccc23)c1` (stereo not drawn) [Compound 22], the EC50 was in the range of 100 to 500 nM and the “Efficacy (%)” value is listed as “†† (150 ≥ Efficacy (%) > 100)”.

Regarding `CC(C)(C)c1cccc(-c2c(C3CCN(c4ccccc4OC(F)(F)F)CC3)oc3cc(C(CC(=O)O)C4CC4)ccc23)c1` (stereo not drawn) [Compound 23], the EC50 lay within 100 to 500 nM and the “Efficacy (%)” value is given as “†† (150 ≥ Efficacy (%) > 100)”.

For `CNc1cccc(N2CCC(c3oc4cc(C(CC(=O)O)C5CC5)ccc4c3-c3ccc(C(C)(C)C)cc3)CC2)c1` (stereo not drawn) [Compound 24], the EC50 is 100 to 500 nM and the “Efficacy (%)” value is recorded as “† (100 ≥ Efficacy (%) > 50)”.

As for `CSc1cccc(N2CCC(c3oc4cc(C(CC(=O)O)C5CC5)ccc4c3-c3ccc(C(C)(C)C)cc3)CC2)c1` (stereo not drawn) [Compound 26], the EC50 fell in the range of 100 to 500 nM and the “Efficacy (%)” value is reported as “†† (150 ≥ Efficacy (%) > 100)”.

Turning to `CC(C)(C)c1ccc(-c2c(C3CCN(c4cccc(S(C)(=O)=O)c4)CC3)oc3cc(C(CC(=O)O)C4CC4)ccc23)cc1` (stereo not drawn) [Compound 27], the EC50 lay in the range of 100 to 500 nM and the “Efficacy (%)” value is listed as “† (100 ≥ Efficacy (%) > 50)”.

Consider `COc1cccc(N2CCC(c3oc4cc([C@@H](CC(=O)O)C5CC5)ccc4c3-c3cccc(C)c3)CC2)c1` [Compound 28], for which the EC50 was 100 to 500 nM and the “Efficacy (%)” value is “††† (Efficacy (%) > 150)”.

Take `COc1cccc(-c2c(C3CCN(c4cccc(OC)c4)CC3)oc3cc(C(CC(=O)O)C4CC4)ccc23)c1` (stereo not drawn) [Compound 29]: the concentration for a half-maximal effect (EC50) is 100 to 500 nM and the “Efficacy (%)” value was “†† (150 ≥ Efficacy (%) > 100)”.

As to `C=C(C)c1ccc(-c2c(C3CCN(c4cccc(OC)c4)CC3)oc3cc(C(CC(=O)O)C4CC4)ccc23)cc1` (stereo not drawn) [Compound 30], the EC50 fell in the range of 100 to 500 nM and the “Efficacy (%)” value is on record as “†† (150 ≥ Efficacy (%) > 100)”.

As for `CSc1cccc(N2CCC(c3oc4cc(C(CC(=O)O)C5CC5)ccc4c3-c3cccc(C(C)(C)C)c3)CC2)c1` (stereo not drawn) [Compound 31], the EC50 was in the range of 100 to 500 nM and the “Efficacy (%)” value is reported as “†† (150 ≥ Efficacy (%) > 100)”.

In the case of `COc1ccnc(N2CCC(c3oc4cc(C(CC(=O)O)C5CC5)ccc4c3-c3ccc(C(C)(C)C)cc3)CC2)c1` (stereo not drawn) [Compound 32], the EC50 was 100 to 500 nM and the “Efficacy (%)” value is listed as “†† (150 ≥ Efficacy (%) > 100)”.

As for `COc1cccc(N2CCC(c3oc4cc([C@@H](CC(=O)O)C5CC5)ccc4c3-c3ccc(OC(C)C)cc3)CC2)c1` [Compound 33], the EC50 lay in the range of 10 to 100 nM and the “Efficacy (%)” value is “†† (150 ≥ Efficacy (%) > 100)”.

As for `COc1cccc(N2CCC(c3oc4cc([C@@H](CC(=O)O)C5CC5)ccc4c3-c3cccc(NC(C)C)c3)CC2)c1` [Compound 34], the EC50 lay within 10 to 100 nM and the “Efficacy (%)” value is “†† (150 ≥ Efficacy (%) > 100)”.

Turning to `COc1cccc(N2CCC(c3oc4cc(C(CC(=O)O)C5CC5)ccc4c3-c3csc(C)c3)CC2)c1` (stereo not drawn) [Compound 35], the EC50 lay within 100 to 500 nM and the “Efficacy (%)” value is reported as “†† (150 ≥ Efficacy (%) > 100)”.

In the case of `COc1cccc(N2CCC(c3oc4cc(C(CC(=O)O)C5CC5)ccc4c3-c3cnn(C)c3)CC2)c1` (stereo not drawn) [Compound 36], the concentration giving a half-maximal response (EC50) was in the range of 100 to 500 nM and the “Efficacy (%)” value is reported as “†† (150 ≥ Efficacy (%) > 100)”.

Regarding `CCn1cc(-c2c(C3CCN(c4cccc(OC)c4)CC3)oc3cc(C(CC(=O)O)C4CC4)ccc23)cn1` (stereo not drawn) [Compound 37], the EC50 was in the range of 100 to 500 nM and the “Efficacy (%)” value is recorded as “†† (150 ≥ Efficacy (%) > 100)”.

For `CC(C)(C)n1cc(-c2c(C3CCN(c4ccccc4)CC3)oc3cc(C(CC(=O)O)C4CC4)ccc23)cn1` (stereo not drawn) [Compound 39], the EC50 was 100 to 500 nM and the “Efficacy (%)” value is given as “††† (Efficacy (%) > 150)”.

With `CC(C)(C)n1cc(-c2c(C3CCN(c4cccc(F)c4)CC3)oc3cc(C(CC(=O)O)C4CC4)ccc23)cn1` (stereo not drawn) [Compound 41], the EC50 lay in the range of 100 to 500 nM and the “Efficacy (%)” value is listed as “†† (150 ≥ Efficacy (%) > 100)”.

`CC(C)(C)n1cc(-c2c(C3CCN(c4cccc(OC(F)F)c4)CC3)oc3cc(C(CC(=O)O)C4CC4)ccc23)cn1` (stereo not drawn) [Compound 43]: the EC50 was 100 to 500 nM and the “Efficacy (%)” value is reported as “†† (150 ≥ Efficacy (%) > 100)”.

On to `COc1ccc(C#N)c(N2CCC(c3oc4cc(C(CC(=O)O)C5CC5)ccc4c3-c3cnn(C(C)(C)C)c3)CC2)c1` (stereo not drawn) [Compound 44], for which the concentration for a half-maximal effect (EC50) is 100 to 500 nM and the “Efficacy (%)” value was “†† (150 ≥ Efficacy (%) > 100)”.
